Data taken from patent publication US11299457B2, “Chemical compounds” (GlaxoSmithKline Intellectual Property (No. 2) Limited, priority 2012, dated 2022).

Tests used:
[1] = tested on: castrated male rat (ORX): levator ani muscle and prostate; assay: Castrated male rat model (ORX rat); assay type: in vivo; conditions: for prostate sparing: defined as at least a 2:1 ratio of levator ani ED50 to prostate ED50; for levator ani hypertrophy: favorable = 30% or greater increase in levator ani weight vs vehicle-treated castrates, dosed orally at up to 10 mg/kg/day
Source text: Castrated Male Rat Model (ORX Rat)
The activity of the compounds of the present invention as modulators of the androgen receptor was investigated using a castrated male rat model (ORX) as described in C. D. Kockakian, Pharmac. Therap. B 1(2), 149-177 (1975); C. Tobin and Y. Joubert, Developmental Biology 146, 131-138 (1991); J. Antonio, J. D. Wilson and F. W. George, J Appl. Physiol. 87(6) 2016-2019 (1999)) the disclosures of which herein are included by reference.
Androgens have been identified as playing important roles in the maintenance and growth of many tissues in both animals and humans. Muscles, like the levator ani and bulbocavernosus, and sexual accessory organs, such as the prostate glands and seminal vesicles have high expression levels of the androgen receptor and are known to respond quickly to exogenous androgen addition or androgen deprivation through testicular ablation. Castration produces dramatic atrophy of muscle and sexual accessory organs; whereas the administration of exogenous androgens to the castrated animal results in effective hypertrophy of these muscles and sexual accessory organs. Although the levator ani muscle, also known as the dorsal bulbocavernosus, is not ‘true skeletal muscle’ and definitely sex-linked, it is reasonable to use this muscle to screen muscle anabolic activities of test compounds because of its androgen responsiveness and simplicity of removal.
Male Sprague-Dawley rats weighing 160-180 grams were used in the assay. The rats were singly caged upon receiving and throughout the study. Bilateral orchidectomies were performed in sterilized surgical conditions under isoflurane anesthesia. An anteroposterior incision was made in the scrotum. The testicles were exteriorized and the spermatic artery and vas deferens were ligated with 4.0 silk 0.5 cm proximal to the ligation site. The testicles then were removed by a surgical scissors distal to the ligation sites. The tissue stumps were returned to the scrotum, the scrotum and overlying skin were closed by a surgical stapler. The Sham-ORX rats underwent all procedures except ligation and scissors cutting. The rats were assigned randomly into study groups 7-10 days post surgery based on the body weight.
Dihydrotestosterone (DHT) and the standard SARM, S-22, (J. Pharma. Exper. Thera. Vol 315, p. 230) were used as a positive control (1-10 mg/kg s.c. for DHT and 0.1 to 3 mg/kg p.o. for S-22). Compounds of the current invention were administered subcutaneously or orally for 4-28 days. Alternatively, some compounds of the current invention were administered subcutaneously or orally for 7-49 days. The rats were weighed daily and doses were adjusted accordingly. The general well being of the animal was monitored throughout the course of the study.
At the end of the study, the rats were euthanized in a CO2 chamber. The ventral prostate glands (VP), seminal vesicles (SV), levator ani muscle (LA) and bulbocavernosus (BC) were carefully dissected. The tissues were blotted dry; the weights were recorded, and then saved for histological and molecular analysis. The VP and SV weights serve as androgenic indicators and LA and BC as anabolic indicators. The ratio of anabolic to androgenic activities was used to evaluate the test compounds. Serum luteinizing hormone (LH), follicle stimulating hormone (FSH) and other potential serum markers of anabolic activities were also analyzed.
In general, preferred compounds show levator ani hypertrophy and very little prostate stimulation.
The compounds shown in Examples 9, 20, 26, 27, 33, 51, 52, and 53 were tested in the castrated male rate model essentially as described above. Test compounds were employed in free or salt form. […] Prostate sparing was defined as at least a 2:1 ratio of levator ani ED50 to prostate ED50. The ED50 is defined as 50% of the maximum response above the vehicle treated castrate level. […]

[2] = biological target: androgen receptor (MBP-hAR-LBD, rat androgen ligand binding domain) (Rattus norvegicus (Rat), UniProt P15207); assay: Androgen receptor fluorescence polarization assay; conditions: maximum of curve fit; max/min compared to absence of compound and 10^-5 M control compound
Method: The androgen receptor fluorescence polarization assay is used to investigate the interaction of the compounds with the androgen receptor.
Compounds are added to the 384 well black low-volume plates to a final volume of 0.1 μL. DTT and DMSO are added to the chilled assay buffer just before beginning assay. Sufficient Fluormone AL Red and AR-LBD are defrosted on ice and added to the chilled buffer in a glass tube to give a final concentration of 1 nM and 100 nM, (for current batch) respectively. A volume of 10 μL of the assay mix is added to compound plates with a multidrop. […] The plates are counted in a Discovery Analyst with suitable 535 nm excitation and 590 nm emission interference filters (Dichroic 561 nM). […] Test compounds are dissolved and diluted in DMSO. Compounds are assayed in singlicate, a four parameter curve fit of the following form being applied
[formula] where a is the minimum, b is the Hill slope, c is the IC50 and d is the maximum.
Data is presented as the mean pIC50 with the standard error of the mean of n experiments.

Sequence of androgen receptor (MBP-hAR-LBD, rat androgen ligand binding domain) (P15207 651-882): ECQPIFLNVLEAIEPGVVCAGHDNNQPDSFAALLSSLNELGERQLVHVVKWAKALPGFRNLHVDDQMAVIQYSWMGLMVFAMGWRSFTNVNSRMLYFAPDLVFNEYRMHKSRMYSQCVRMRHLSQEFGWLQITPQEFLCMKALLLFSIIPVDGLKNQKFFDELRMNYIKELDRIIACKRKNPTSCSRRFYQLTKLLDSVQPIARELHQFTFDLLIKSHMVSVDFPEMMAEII

| SMILES | prostate sparing [1] | levator ani hypertrophy [1] | % Max [2] |
| --- | --- | --- | --- |
| C[C@@H](n1ccc2c(Cl)c(C#N)ccc21)[C@](C)(O)C(F)(F)F [Example 52, 4-Chloro-1-((2R,3S)-4,4,4-trifluoro-3-hydroxy-3-methylbutan-2-yl)-1H-indole-5-carbonitrile] | spared the prostate | favorable levator ani hypertrophy |  |
| CC[C@H](c1cncc(C#N)c1)n1ccc2c(C#N)c(C#N)ccc21 [Example 51, (R)-1-(1-(5-Cyanopyridin-3-yl)propyl)-1H-indole-4,5-dicarbonitrile] | spared the prostate | favorable levator ani hypertrophy |  |
| C[C@H](n1ccc2c(C(F)(F)F)c(C#N)ccc21)C(C)(C)O [Example 21, (S)-1-(3-Hydroxy-3-methylbutan-2-yl)-4-(trifluoromethyl)-1H-indole-5-carbonitrile] |  |  | 100% |
| Cc1cc2c(C(F)(F)F)c(C#N)ccc2n1C(C)CS(C)(=O)=O (stereo not shown) [Example 9, 2-Methyl-1-(1-(methylsulfonyl)propan-2-yl)-4-(trifluoromethyl)-1H-indole-5-carbonitrile] | spared the prostate | favorable levator ani hypertrophy |  |
| CC(CS(C)(=O)=O)n1ccc2c(C(F)(F)F)c(C#N)ccc21 (stereo not shown) [Example 26, 1-(1-(Methylsulfonyl)propan-2-yl)-4-(trifluoromethyl)-1H-indole-5-carbonitrile] | spared the prostate | favorable levator ani hypertrophy |  |
| C[C@H](CS(C)(=O)=O)n1ccc2c(C(F)(F)F)c(C#N)ccc21 [Example 27, (R)-1-(1-(Methylsulfonyl)propan-2-yl)-4-(trifluoromethyl)-1H-indole-5-carbonitrile] | spared the prostate | favorable levator ani hypertrophy |  |
| C[C@@H](n1ccc2c(C(F)(F)F)c(C#N)ccc21)[C@](C)(O)C(F)(F)F [Example 53, 1-((2R,3S)-4,4,4-Trifluoro-3-hydroxy-3-methylbutan-2-yl)-4-(trifluoromethyl)-1H-indole-5-carbonitrile] | spared the prostate | favorable levator ani hypertrophy |  |
